Earlier results in patent US6605646B2, “Vitamin supplement composition” (Upsher-Smith Laboratories, Inc., priority 1995, dated 2003).

Settings: grain fortification, elderly adults

## Nc1nc2ncc(CNc3ccc(C(=O)N[C@@H](CCC(=O)O)C(=O)O)cc3)nc2c(=O)[nH]1 [folic acid, pteroylglutamic acid]
  serum folate: increased serum folate
  serum homocysteine: decreased serum homocysteine
